According to the NIST ThermoML archive (doi:10.1021/je100581m):
Numbers after ± are expanded uncertainties.

Test: xn = mol fraction of the nth substance listed
Conditions: Liquid, Vibrating tube method

C=CC(C)(O)CCC=C(C)C (stereo not given) [3,7-dimethyl-1,6-octadien-3-ol] + CCCO
mass density [kg/m3]
Conditions | x2 = 0 | x2 = 0.107 | x2 = 0.206 | x2 = 0.3066 | x2 = 0.4064 | x2 = 0.501 | x2 = 0.6034 | x2 = 0.7055 | x2 = 0.7985 | x2 = 0.898
283.15 K, 100 kPa | 869.5 ± 1.1 | 867 ± 1.1 | 864.9 ± 1.1 | 862.1 ± 1 | 859 ± 1 | 855.4 ± 1 | 850.3 ± 1 | 843.7 ± 1 | 835.9 ± 1 | 825.2 ± 1
283.15 K, 5000 kPa | 872.6 ± 1.1 | 870.2 ± 1.1 | 868.1 ± 1.1 | 865.4 ± 1.1 | 862.2 ± 1 | 858.6 ± 1 | 853.6 ± 1 | 847 ± 1 | 839.3 ± 1 | 828.8 ± 1
283.15 K, 10000 kPa | 875.7 ± 1.2 | 873.1 ± 1.1 | 871 ± 1.1 | 868.3 ± 1.1 | 865.2 ± 1 | 861.6 ± 1 | 856.7 ± 1 | 850 ± 1 | 842.4 ± 1 | 832 ± 1
283.15 K, 15000 kPa | 878.7 ± 1.2 | 876.2 ± 1.1 | 874.1 ± 1.1 | 871.4 ± 1.1 | 868.3 ± 1 | 864.8 ± 1 | 859.9 ± 1 | 853.3 ± 1 | 845.8 ± 1 | 835.5 ± 1
283.15 K, 20000 kPa | 881.5 ± 1.2 | 879 ± 1.1 | 876.9 ± 1.1 | 874.4 ± 1.1 | 871.3 ± 1.1 | 867.7 ± 1 | 862.8 ± 1 | 856.3 ± 1 | 848.8 ± 1 | 838.6 ± 1
298.15 K, 100 kPa | 857.3 ± 1.1 | 854.8 ± 1.1 | 852.7 ± 1.1 | 849.9 ± 1 | 846.8 ± 1 | 843.2 ± 1 | 838.2 ± 1 | 831.6 ± 1 | 824 ± 1 | 813.4 ± 1
298.15 K, 5000 kPa | 860.6 ± 1.1 | 858.1 ± 1.1 | 856 ± 1.1 | 853.3 ± 1.1 | 850.2 ± 1 | 846.7 ± 1 | 841.7 ± 1 | 835.1 ± 1 | 827.7 ± 1 | 817.2 ± 1
298.15 K, 10000 kPa | 863.9 ± 1.2 | 861.4 ± 1.1 | 859.4 ± 1.1 | 856.6 ± 1.1 | 853.6 ± 1 | 850.1 ± 1 | 845.2 ± 1 | 838.7 ± 1 | 831.2 ± 1 | 820.8 ± 1
298.15 K, 15000 kPa | 867 ± 1.2 | 864.6 ± 1.1 | 862.6 ± 1.1 | 859.9 ± 1.1 | 856.8 ± 1.1 | 853.3 ± 1 | 848.5 ± 1 | 842 ± 1 | 834.6 ± 1 | 824.4 ± 1
298.15 K, 20000 kPa | 870 ± 1.2 | 867.7 ± 1.1 | 865.6 ± 1.1 | 863 ± 1.1 | 859.9 ± 1.1 | 856.5 ± 1 | 851.6 ± 1 | 845.2 ± 1 | 837.9 ± 1 | 827.8 ± 1
313.15 K, 100 kPa | 844.5 ± 1.1 | 842.1 ± 1.1 | 840.1 ± 1.1 | 837.3 ± 1 | 834.1 ± 1 | 830.5 ± 1 | 825.6 ± 1 | 819.1 ± 1 | 811.6 ± 1 | 801.2 ± 1
313.15 K, 5000 kPa | 848.2 ± 1.1 | 845.8 ± 1.1 | 843.8 ± 1.1 | 841.1 ± 1.1 | 837.9 ± 1 | 834.4 ± 1 | 829.5 ± 1 | 823.1 ± 1 | 815.6 ± 1 | 805.3 ± 1
313.15 K, 10000 kPa | 851.6 ± 1.1 | 849.3 ± 1.1 | 847.3 ± 1.1 | 844.6 ± 1.1 | 841.5 ± 1 | 838 ± 1 | 833.2 ± 1 | 826.8 ± 1 | 819.4 ± 1 | 809.2 ± 1
313.15 K, 15000 kPa | 855 ± 1.2 | 852.8 ± 1.1 | 850.8 ± 1.1 | 848.1 ± 1.1 | 845.1 ± 1.1 | 841.5 ± 1 | 836.7 ± 1 | 830.4 ± 1 | 823.2 ± 1 | 813.1 ± 1
313.15 K, 20000 kPa | 858.4 ± 1.2 | 856.1 ± 1.1 | 854.1 ± 1.1 | 851.5 ± 1.1 | 848.4 ± 1.1 | 844.9 ± 1.1 | 840.2 ± 1 | 833.9 ± 1 | 826.7 ± 1 | 816.7 ± 1
328.15 K, 100 kPa | 831.7 ± 1.1 | 829.4 ± 1.1 | 827.3 ± 1.1 | 824.5 ± 1 | 821.3 ± 1 | 817.7 ± 1 | 812.8 ± 1 | 806.3 ± 1 | 799 ± 1 | 788.7 ± 1
328.15 K, 5000 kPa | 835.6 ± 1.1 | 833.3 ± 1.1 | 831.2 ± 1.1 | 828.5 ± 1.1 | 825.3 ± 1 | 821.8 ± 1 | 816.9 ± 1 | 810.5 ± 1 | 803.3 ± 1 | 793.1 ± 1
328.15 K, 10000 kPa | 839.5 ± 1.1 | 837.2 ± 1.1 | 835.2 ± 1.1 | 832.5 ± 1.1 | 829.3 ± 1 | 825.8 ± 1 | 821 ± 1 | 814.7 ± 1 | 807.5 ± 1 | 797.5 ± 1
328.15 K, 15000 kPa | 843.1 ± 1.2 | 840.9 ± 1.1 | 838.8 ± 1.1 | 836.2 ± 1.1 | 833 ± 1.1 | 829.5 ± 1 | 824.8 ± 1 | 818.5 ± 1 | 811.4 ± 1 | 801.5 ± 1
328.15 K, 20000 kPa | 846.7 ± 1.2 | 844.4 ± 1.1 | 842.4 ± 1.1 | 839.8 ± 1.1 | 836.7 ± 1.1 | 833.2 ± 1.1 | 828.5 ± 1 | 822.3 ± 1 | 815.2 ± 1 | 805.3 ± 1
